{
  "source": "patent US11542273B2",
  "about": "“Amide compound having bet proteolysis-inducing action and medicinal application thereof” (MITSUBISHI TANABE PHARMA CORPORATION, priority 2018, dated 2023)",
  "key": {"[1]": {"target": "BRD4 protein (Homo sapiens (Human), UniProt O60885)", "assay": "BRD4 protein degradation inducing action in cancer cells (immunofluorescence, Operetta)", "type": "cell-based", "settings": "LNCaP cells, 6 hr treatment, fluorescence intensity", "procedure,_shortened": "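DC50 = compound concentration reducing BRD4 immunofluorescence to 50% of untreated cells, interpolated between the two flanking concentrations. Treatment: LNCaP cells, 6 hr, 10% FBS/RPMI1640, 37° C. Cells were then fixed, permeabilized, stained with anti-BRD4 and Alexa Fluor 488 or 546 secondaries, and imaged.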"}, "[2]": {"tested_on": "human prostate cancer LNCaP cells", "assay": "Cytotoxic action on cancer cells (WST-8, 96 hr)", "type": "cell-based", "settings": "Homo sapiens, LNCaP, 96 h, read-out: LNCaP cytotoxic activity: IC50", "procedure,_shortened": "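10% FBS/RPMI1640; overnight plating, 37° C/5% CO2; compound from DMSO diluted in medium; WST-8 viable count vs no-compound control; IC50 by two-point linear interpolation around 50% survival.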"}, "[3]": {"tested_on": "human acute myeloid leukemia MV-4-11 cell transplanted mouse", "assay": "Antitumor effect in human acute myeloid leukemia MV-4-11 cell transplanted mouse", "type": "in vivo", "settings": "MV4-11, iv, 360 h", "experimental": "The in vivo antitumor effect of the compound of the present invention was studied using human acute myeloid leukemia MV-4-11 cell transplanted mouse. MV-4-11 cells were subcutaneously transplanted into the inguinal region of male, 6-week-old BALB/c nude mouse (5×10^6 cells/mouse). The compound of the present invention was administered into the tail vein on days 1, 5, 9, 13 from the time point when the assumed tumor volume determined from 1/2ab^2 (a is major axis and b is minor axis of tumor) reached about 100 mm^3 (day 1). The control group was administered with a solvent, 10% hydroxypropyl-β-cyclodextrin solution. On day 15, the tumor was isolated, the weight was measured, and the tumor growth inhibitory rate IR (%) was calculated by the following formula. tumor growth inhibitory rate IR (%)=(1−tumor weight of administration group/tumor weight of nonadministration control group)×100"}, "[4]": {"settings": "read-out: tumor growth inhibitory rate"}},
  "note": "Like-named read-outs stand apart in the source and are kept apart here.",
  "data": [
    {"smiles": "COC(=O)N[C@@H]1N=C(c2ccc(-c3ccc(OCC(=O)N[C@H](C(=O)N4C[C@H](O)C[C@H]4C(=O)N[C@@H](C)c4ccc(-c5scnc5C)cc4)C(C)(C)C)cc3)cc2)c2c(sc(C)c2C)-n2c(C)nnc21", "note": "[Example 31, methyl [(6R)-4-{4′-[2-({(2S)-1-[(2S,4R)-4-hydroxy-2-({(1S)-1-[4-(4-methyl-1,3-thiazol-5-yl)phenyl]ethyl}carbamoyl)pyrrolidin-1-yl]-3,3-dimethyl-1-oxobutan-2-yl}amino)-2-oxoethoxy][1,1′-biphenyl]-4-yl}-2,3,9-trimethyl-6H-thieno[3,2-f][1,2,4]triazolo[4,3-a][1,4]diazepin-6-yl]carbamate]", "values": [
      {"measurement": "DC50", "setting": "[1]", "value": 0.062, "unit": "nM"},
      {"measurement": "IC50", "setting": "[2]", "value": 0.039, "unit": "nM"},
      {"measurement": "inhibition in vivo at 0.3 mg/kg", "setting": "[3]; dose 0.3 mg/kg/day, tail vein on days 1, 5, 9, 13, tumor weight on day 15, read-out: tumor growth inhibitory rate", "value": 95.6, "unit": "%"}
    ]},
    {"smiles": "COC(=O)C[C@@H]1N=C(c2ccc(-c3ccc(C(=O)N[C@H](C(=O)N4C[C@H](O)C[C@H]4C(=O)N[C@@H](C)c4ccc(-c5scnc5C)cc4)C(C)(C)C)c(F)c3)cc2)c2c(sc(C)c2C)-n2c(C)nnc21", "note": "[Example 94, methyl {(6S)-4-[3′-fluoro-4′-({(2S)-1-[(2S,4R)-4-hydroxy-2-({(1S)-1-[4-(4-methyl-1,3-thiazol-5-yl)phenyl]ethyl}carbamoyl)pyrrolidin-1-yl]-3,3-dimethyl-1-oxobutan-2-yl}carbamoyl)[1,1′-biphenyl]-4-yl]-2,3,9-trimethyl-6H-thieno[3,2-f][1,2,4]triazolo[4,3-a][1,4]diazepin-6-yl}acetate]", "values": [
      {"measurement": "DC50", "setting": "[1]", "value": 0.64, "unit": "nM"},
      {"measurement": "IC50", "setting": "[2]", "value": 0.29, "unit": "nM"},
      {"measurement": "inhibition in vivo at 3 mg/kg", "setting": "[3]; [4]", "value": 98.2, "unit": "%"}
    ]},
    {"smiles": "COC(=O)C[C@@H]1N=C(c2ccc(N3CC[C@H](C(=O)Nc4ccc5oc(C(=O)N[C@H](C(=O)N6C[C@H](O)C[C@H]6C(=O)N[C@@H](C)c6ccc(-c7scnc7C)cc6)C(C)(C)C)cc5c4)C3)cc2)c2c(sc(C)c2C)-n2c(C)nnc21", "note": "[Example 138, methyl [(6S)-4-{4-[(3S)-3-{[2-({(2S)-1-[(2S,4R)-4-hydroxy-2-({(1S)-1-[4-(4-methyl-1,3-thiazol-5-yl)phenyl]ethyl}carbamoyl)pyrrolidin-1-yl]-3,3-dimethyl-1-oxobutan-2-yl}carbamoyl)-1-benzofuran-5-yl]carbamoyl}pyrrolidin-1-yl]phenyl}-2,3,9-trimethyl-6H-thieno[3,2-f][1,2,4]triazolo[4,3-a][1,4]diazepin-6-yl]acetate]", "values": [
      {"measurement": "DC50", "setting": "[1]", "value": 0.62, "unit": "nM"},
      {"measurement": "IC50", "setting": "[2]", "value": 0.24, "unit": "nM"},
      {"measurement": "inhibition in vivo at 1 mg/kg", "setting": "[3]; [4]", "value": 97.8, "unit": "%"},
      {"measurement": "inhibition in vivo at 3 mg/kg", "setting": "[3]; [4]", "value": 98.6, "unit": "%"}
    ]},
    {"smiles": "COC(=O)C[C@@H]1N=C(c2ccc(-c3ccc4oc(C(=O)N[C@H](C(=O)N5C[C@H](O)C[C@H]5C(=O)N[C@@H](C)c5ccc(-c6scnc6C)cc5)C(C)(C)C)nc4c3)cc2)c2c(sc(C)c2C)-n2c(C)nnc21", "note": "[Example 101, methyl [(6S)-4-{4-[2-({(2S)-1-[(2S,4R)-4-hydroxy-2-({(1S)-1-[4-(4-methyl-1,3-thiazol-5-yl)phenyl]ethyl}carbamoyl)pyrrolidin-1-yl]-3,3-dimethyl-1-oxobutan-2-yl}carbamoyl)-1,3-benzoxazol-5-yl]phenyl}-2,3,9-trimethyl-6H-thieno[3,2-f][1,2,4]triazolo[4,3-a][1,4]diazepin-6-yl]acetate]", "values": [
      {"measurement": "DC50", "setting": "[1]", "value": 0.052, "unit": "nM"},
      {"measurement": "IC50", "setting": "[2]", "value": 0.059, "unit": "nM"},
      {"measurement": "inhibition in vivo at 3 mg/kg", "setting": "[3]; [4]", "value": 98.2, "unit": "%"}
    ]},
    {"smiles": "COC(=O)C[C@@H]1N=C(c2ccc(N3CC[C@@H](C(=O)NCCOc4ccc5oc(C(=O)N[C@H](C(=O)N6C[C@H](O)C[C@H]6C(=O)N[C@@H](C)c6ccc(-c7scnc7C)cc6)C(C)(C)C)cc5c4)C3)cc2)c2c(sc(C)c2C)-n2c(C)nnc21", "note": "[Example 67, methyl [(6S)-4-(4-{(3R)-3-[(2-{[2-({(2S)-1-[(2S,4R)-4-hydroxy-2-({(1S)-1-[4-(4-methyl-1,3-thiazol-5-yl)phenyl]ethyl}carbamoyl)pyrrolidin-1-yl]-3,3-dimethyl-1-oxobutan-2-yl}carbamoyl]-1-benzofuran-5-yl]oxy}ethyl)carbamoyl]pyrrolidin-1-yl}phenyl)-2,3,9-trimethyl-6H-thieno[3,2-f][1,2,4]triazolo[4,3-a][1,4]diazepin-6-yl]acetate]", "values": [
      {"measurement": "DC50", "setting": "[1]", "value": 0.55, "unit": "nM"},
      {"measurement": "IC50", "setting": "[2]", "value": 0.47, "unit": "nM"},
      {"measurement": "inhibition in vivo at 3 mg/kg", "setting": "[3]; dose 3 mg/kg/day, tail vein on days 1, 5, 9, 13, tumor weight on day 15, read-out: tumor growth inhibitory rate", "value": 97.7, "unit": "%"}
    ]}
  ]
}
